Calls of active or inactive are those of the source.

Assay [1] concerns the target Beta-adrenergic receptor kinase 1 (Homo sapiens, UniProt P25098). Kind of assay: GRK2 inhibitors displacing RNA aptamer, dose response, biochemical, flow cytometry beads, FAM-aptamer, powder set 1 (AID 588720). On the technique in general: A flow cytometer gives signals particle by particle.
The target in assay [2] is T1, Dual specificity protein phosphatase 6 (Rattus norvegicus, UniProt Q64346).
Assay [3] has as its target T2, Tyrosine-protein phosphatase non-receptor type 7 (Homo sapiens, UniProt P35236).
T2 sequence (P35236 whole entry): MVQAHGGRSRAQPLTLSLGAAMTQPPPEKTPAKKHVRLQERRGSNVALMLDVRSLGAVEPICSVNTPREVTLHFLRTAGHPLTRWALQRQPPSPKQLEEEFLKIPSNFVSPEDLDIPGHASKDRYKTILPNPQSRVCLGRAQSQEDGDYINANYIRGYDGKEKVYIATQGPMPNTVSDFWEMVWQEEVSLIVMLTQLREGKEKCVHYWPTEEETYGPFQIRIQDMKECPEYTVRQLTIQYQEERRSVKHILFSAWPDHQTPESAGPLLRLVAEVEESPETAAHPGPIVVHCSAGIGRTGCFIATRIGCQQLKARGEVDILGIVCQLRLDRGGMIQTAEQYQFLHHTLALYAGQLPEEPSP
The format is functional.

Assay [4] addresses Glyceraldehyde-3-phosphate dehydrogenase (Homo sapiens, UniProt P04406).
Assay [5] addresses T1, Dual specificity protein phosphatase 6. The format is functional.
The target in assay [6] is T3, Intestinal-type alkaline phosphatase (Homo sapiens, UniProt P09923). Briefly: Dose Response confirmation of uHTS hits from a small molecule inhibitors of human intestinal alkaline phosphatase via a luminescent assay. [Related pubchem assays (depositor defined):AID2544, AID2574]. Format: functional.
For assay [7], the target named is T3, Intestinal-type alkaline phosphatase. Kind of assay: human IAP inhibitors, dose response, biochemical, luminescent, uHTS hits, set 2 (AID 488793). The format is functional.
Assay [8] has as its target T4, Alkaline phosphatase, tissue-nonspecific isozyme (Homo sapiens, UniProt P05186).
T4 sequence (P05186 whole entry): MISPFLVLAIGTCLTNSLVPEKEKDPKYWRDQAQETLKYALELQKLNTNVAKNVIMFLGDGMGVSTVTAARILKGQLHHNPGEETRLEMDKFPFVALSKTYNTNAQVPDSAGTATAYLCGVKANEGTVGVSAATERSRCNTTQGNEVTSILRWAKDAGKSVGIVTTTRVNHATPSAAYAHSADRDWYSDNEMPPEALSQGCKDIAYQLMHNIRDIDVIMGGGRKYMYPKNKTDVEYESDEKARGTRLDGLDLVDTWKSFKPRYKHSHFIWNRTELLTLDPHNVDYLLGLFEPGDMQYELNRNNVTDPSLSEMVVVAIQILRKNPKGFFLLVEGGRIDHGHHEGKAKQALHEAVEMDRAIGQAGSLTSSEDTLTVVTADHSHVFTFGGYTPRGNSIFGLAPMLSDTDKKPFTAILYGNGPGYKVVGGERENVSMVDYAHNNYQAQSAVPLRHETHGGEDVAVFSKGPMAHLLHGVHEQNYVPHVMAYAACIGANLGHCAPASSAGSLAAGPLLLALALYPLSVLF
Kind of assay: inhibition of tissue-nonspecific alkaline phosphatase – biochemical, dose response (AID 488882). Format: functional.

The target of a further assay is Large T antigen (Simian virus 40, UniProt P03070). The format is functional, Betapolyomavirus macacae.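 Note: Confirmatory-stage PubChem screen for compounds that inhibit SV40 T antigen.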
For a further assay, the target named is T5, Leucine aminopeptidase (Plasmodium falciparum 3D7, UniProt Q8IL11).
T5 sequence (Q8IL11 whole entry): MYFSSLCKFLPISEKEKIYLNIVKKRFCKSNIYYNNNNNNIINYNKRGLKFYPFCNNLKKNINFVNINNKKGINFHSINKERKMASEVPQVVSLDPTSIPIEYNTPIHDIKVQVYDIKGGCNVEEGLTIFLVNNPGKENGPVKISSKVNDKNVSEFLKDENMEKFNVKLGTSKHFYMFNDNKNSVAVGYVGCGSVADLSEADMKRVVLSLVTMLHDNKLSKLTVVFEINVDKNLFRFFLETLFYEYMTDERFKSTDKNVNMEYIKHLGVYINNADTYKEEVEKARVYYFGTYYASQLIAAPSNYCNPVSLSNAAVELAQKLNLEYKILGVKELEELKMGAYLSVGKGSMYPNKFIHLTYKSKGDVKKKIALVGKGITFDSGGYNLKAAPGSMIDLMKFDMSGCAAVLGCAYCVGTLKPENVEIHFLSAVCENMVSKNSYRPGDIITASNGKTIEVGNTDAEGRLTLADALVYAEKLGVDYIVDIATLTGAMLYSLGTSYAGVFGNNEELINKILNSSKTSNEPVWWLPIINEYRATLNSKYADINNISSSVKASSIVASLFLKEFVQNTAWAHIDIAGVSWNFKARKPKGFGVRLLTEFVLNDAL
Briefly: P. falciparum M17LAP inhibitors, primary screen, biochemical, fluorogenic H-Leu-NHMec substrate, 1536-well (AID 1619). The format is functional.

Assay [9] addresses Intestinal-type alkaline phosphatase (Mus musculus, UniProt P24822). Kind of assay: PubChem AID 488874. Format: functional.
The target in the next assay is Mu-type opioid receptor (Homo sapiens, UniProt P35372). Kind of assay: Counterscreen for agonists of heterodimerization of the mu 1 (OPRM1) and delta 1 (OPRD1) opioid receptors: Luminescence-based cell-based high throughput dose response assay to identify agonists of OPRM1 homodimerization. Format: functional. (A counterscreen serves to expose hits that act by an unwanted route or on another target.);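 note: U2OS cells expressing OPRM1 and beta-arrestin as split beta-galactosidase partners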

Assay [10] concerns the target T6, Short transient receptor potential channel 4 (Mus musculus, UniProt Q9QUQ5).
T6 sequence (Q9QUQ5 whole entry): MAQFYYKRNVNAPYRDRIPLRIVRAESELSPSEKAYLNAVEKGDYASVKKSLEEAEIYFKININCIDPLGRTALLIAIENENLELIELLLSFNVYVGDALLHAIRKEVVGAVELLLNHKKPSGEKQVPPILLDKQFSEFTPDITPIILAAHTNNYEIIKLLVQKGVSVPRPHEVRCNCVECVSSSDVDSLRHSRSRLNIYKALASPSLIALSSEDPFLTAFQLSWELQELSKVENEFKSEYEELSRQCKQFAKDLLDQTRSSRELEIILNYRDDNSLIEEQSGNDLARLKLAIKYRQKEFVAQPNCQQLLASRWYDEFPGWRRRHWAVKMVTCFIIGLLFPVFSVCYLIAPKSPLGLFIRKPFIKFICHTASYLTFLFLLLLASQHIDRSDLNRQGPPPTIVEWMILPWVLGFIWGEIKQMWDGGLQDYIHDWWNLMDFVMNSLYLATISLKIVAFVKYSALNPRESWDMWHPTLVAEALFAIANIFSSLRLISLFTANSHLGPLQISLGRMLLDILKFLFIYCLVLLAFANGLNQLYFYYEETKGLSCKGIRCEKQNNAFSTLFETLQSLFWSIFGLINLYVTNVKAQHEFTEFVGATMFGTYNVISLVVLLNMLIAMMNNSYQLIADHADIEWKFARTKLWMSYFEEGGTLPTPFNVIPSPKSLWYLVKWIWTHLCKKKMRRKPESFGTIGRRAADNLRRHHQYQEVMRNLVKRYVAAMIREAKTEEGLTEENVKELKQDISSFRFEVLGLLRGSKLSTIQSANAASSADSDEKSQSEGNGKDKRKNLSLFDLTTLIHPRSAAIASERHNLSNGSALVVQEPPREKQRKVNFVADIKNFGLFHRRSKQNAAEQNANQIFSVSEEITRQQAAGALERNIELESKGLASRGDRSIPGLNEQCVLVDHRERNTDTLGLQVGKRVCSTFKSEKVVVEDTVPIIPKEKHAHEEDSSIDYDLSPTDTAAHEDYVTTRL
Kind of assay: mouse TRPC4 channel activators, dose response, cell-based, HEK293 TRPC4/mu-opioid, Fluo-4 calcium (AID 434937). Format: functional.

Assay [11] concerns the target Delta-type opioid receptor (Homo sapiens, UniProt P41143). Kind of assay: Counterscreen for agonists of heterodimerization of the mu 1 (OPRM1) and delta 1 (OPRD1) opioid receptors: Luminescence-based cell-based high throughput dose response assay to identify agonists of OPRD1 homodimerization. [Related pubchem assays (depositor defined):AID504326, AID504355, AID504692, AID504904, AID504905]. The format is functional.

Assay [12] deals with 5-hydroxytryptamine receptor 5A (Homo sapiens, UniProt P47898). Kind of assay: Counterscreen for agonists of OPRM1-OPRD1 heterodimerization: luminescence-based cell-based high throughput dose response assay to identify agonists of 5-hydroxytryptamine (serotonin) 5A receptor (HTR5A). [Related pubchem assays (depositor defined):AID504326, AID504355, AID504692, AID504904, AID504905]. The format is functional.

The test system of assay [13] is Vero. Kind of assay: cells. As to conditions: Chlorocebus sabaeus. Format: functional.
Assay [14] is described as follows: control 3'UTR Renilla luciferase suppression, dose response, counter-screen for Shn3 inhibitor project, cell-based, Clone20-Shn3RL, cherry-picked (AID 624133). Format: functional.
Assay [15] is described as follows: Shn3 3'UTR reporter inhibitors, dose response, cell-based, Clone20 osteoblasts, firefly luciferase, cherry-picked (AID 624132).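 Note: firefly luciferase luminescence from reporter carrying the Shn3 3'UTR in osteoblasts.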 The format is functional.
In another assay the target is Paired box protein Pax-8 (Homo sapiens, UniProt Q06710). Kind of assay: inhibitors of PAX8-driven TPO luciferase reporter, dose response, RMG-I cells, cherry-pick (AID 687027).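 Note: luciferase reporter driven by Pax8 target thyroperoxidase promoter measured by SteadyGlo luminescence.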 The format is functional, cell-based. In general terms: In a reporter assay the amount or activity of a reporter protein is the signal.
Assay [16] deals with Escherichia coli. Kind of assay: microbe, parasite or virus in culture.
Assay [17] concerns Escherichia coli. Kind of assay: microbe, parasite or virus in culture. The source holds these as a separate data set.
The nature of assay [18]: HepG2 cell cytotoxicity, dose response, cytotoxicity control for Shn3 inhibitor project, CellTiter-Glo, cherry-picked (AID 624134). Format: functional, cell-based.
In assay [19] the test system is Vero. Briefly: cells. As to conditions: Chlorocebus sabaeus. The format is functional, cell-based.
Another assay addresses Hexokinase-1 (Homo sapiens, UniProt P19367). Briefly: HK1 enzyme inhibition by HKDC1 hits, SAR follow-up, selectivity assay for HKDC1 inhibitor project, biochemical, set 2, resazurin fluorescence coupled readout (AID 588356). The format is functional.
The next assay addresses T7, Hexokinase HKDC1 (Homo sapiens, UniProt Q2TB90).
T7 sequence (Q2TB90 whole entry): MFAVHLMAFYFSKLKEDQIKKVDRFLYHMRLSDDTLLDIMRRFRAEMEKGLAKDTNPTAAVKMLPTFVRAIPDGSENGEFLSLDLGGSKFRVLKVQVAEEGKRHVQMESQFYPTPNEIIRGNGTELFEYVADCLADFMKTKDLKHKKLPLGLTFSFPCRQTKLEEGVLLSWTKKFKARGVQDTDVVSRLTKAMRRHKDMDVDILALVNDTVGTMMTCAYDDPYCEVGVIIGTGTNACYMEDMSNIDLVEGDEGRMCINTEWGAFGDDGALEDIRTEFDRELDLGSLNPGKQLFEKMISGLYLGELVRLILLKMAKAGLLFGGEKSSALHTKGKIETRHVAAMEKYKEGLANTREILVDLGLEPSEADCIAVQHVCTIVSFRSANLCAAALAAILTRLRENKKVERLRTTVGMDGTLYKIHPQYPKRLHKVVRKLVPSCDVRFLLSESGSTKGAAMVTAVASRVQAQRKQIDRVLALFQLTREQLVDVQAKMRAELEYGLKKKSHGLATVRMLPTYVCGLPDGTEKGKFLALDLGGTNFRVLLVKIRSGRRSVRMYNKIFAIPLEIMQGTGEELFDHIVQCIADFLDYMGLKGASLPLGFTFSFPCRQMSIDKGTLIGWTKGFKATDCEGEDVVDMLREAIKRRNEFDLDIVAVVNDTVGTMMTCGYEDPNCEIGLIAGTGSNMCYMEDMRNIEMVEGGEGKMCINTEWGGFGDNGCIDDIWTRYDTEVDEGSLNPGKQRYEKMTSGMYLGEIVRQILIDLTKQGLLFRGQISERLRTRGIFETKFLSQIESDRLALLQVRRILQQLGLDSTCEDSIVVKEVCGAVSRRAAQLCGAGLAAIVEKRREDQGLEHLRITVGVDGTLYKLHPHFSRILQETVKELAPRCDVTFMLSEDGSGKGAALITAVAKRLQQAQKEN
Kind of assay: HKDC1 hexokinase inhibitors, SAR follow-up, biochemical, set 2 (AID 588355). The format is functional.

T3 sequence (P09923 whole entry): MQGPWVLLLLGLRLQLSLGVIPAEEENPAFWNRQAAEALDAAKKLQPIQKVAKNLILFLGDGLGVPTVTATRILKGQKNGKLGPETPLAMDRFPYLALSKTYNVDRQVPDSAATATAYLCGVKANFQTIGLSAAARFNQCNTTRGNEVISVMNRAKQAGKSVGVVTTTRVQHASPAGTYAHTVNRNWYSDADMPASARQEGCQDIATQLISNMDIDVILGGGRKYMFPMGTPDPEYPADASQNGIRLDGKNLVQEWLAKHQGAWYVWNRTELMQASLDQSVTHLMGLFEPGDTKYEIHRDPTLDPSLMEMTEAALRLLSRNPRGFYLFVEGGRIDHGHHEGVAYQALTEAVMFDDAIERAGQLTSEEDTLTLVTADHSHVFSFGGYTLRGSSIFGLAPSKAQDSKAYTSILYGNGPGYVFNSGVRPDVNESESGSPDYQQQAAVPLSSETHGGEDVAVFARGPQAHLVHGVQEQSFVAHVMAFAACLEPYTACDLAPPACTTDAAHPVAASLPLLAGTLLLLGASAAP
T1 sequence (Q64346 whole entry): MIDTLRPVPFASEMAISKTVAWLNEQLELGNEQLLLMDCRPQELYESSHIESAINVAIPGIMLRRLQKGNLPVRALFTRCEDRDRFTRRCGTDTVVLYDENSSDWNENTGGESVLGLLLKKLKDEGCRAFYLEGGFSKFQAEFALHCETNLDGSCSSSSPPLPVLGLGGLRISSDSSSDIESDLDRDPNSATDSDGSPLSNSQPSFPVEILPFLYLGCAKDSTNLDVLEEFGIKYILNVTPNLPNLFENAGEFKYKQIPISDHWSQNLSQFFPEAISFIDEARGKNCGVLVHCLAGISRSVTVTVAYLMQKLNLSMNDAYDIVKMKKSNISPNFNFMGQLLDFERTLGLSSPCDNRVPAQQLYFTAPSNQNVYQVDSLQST
Sequence of Hexokinase-1 (P19367 whole entry): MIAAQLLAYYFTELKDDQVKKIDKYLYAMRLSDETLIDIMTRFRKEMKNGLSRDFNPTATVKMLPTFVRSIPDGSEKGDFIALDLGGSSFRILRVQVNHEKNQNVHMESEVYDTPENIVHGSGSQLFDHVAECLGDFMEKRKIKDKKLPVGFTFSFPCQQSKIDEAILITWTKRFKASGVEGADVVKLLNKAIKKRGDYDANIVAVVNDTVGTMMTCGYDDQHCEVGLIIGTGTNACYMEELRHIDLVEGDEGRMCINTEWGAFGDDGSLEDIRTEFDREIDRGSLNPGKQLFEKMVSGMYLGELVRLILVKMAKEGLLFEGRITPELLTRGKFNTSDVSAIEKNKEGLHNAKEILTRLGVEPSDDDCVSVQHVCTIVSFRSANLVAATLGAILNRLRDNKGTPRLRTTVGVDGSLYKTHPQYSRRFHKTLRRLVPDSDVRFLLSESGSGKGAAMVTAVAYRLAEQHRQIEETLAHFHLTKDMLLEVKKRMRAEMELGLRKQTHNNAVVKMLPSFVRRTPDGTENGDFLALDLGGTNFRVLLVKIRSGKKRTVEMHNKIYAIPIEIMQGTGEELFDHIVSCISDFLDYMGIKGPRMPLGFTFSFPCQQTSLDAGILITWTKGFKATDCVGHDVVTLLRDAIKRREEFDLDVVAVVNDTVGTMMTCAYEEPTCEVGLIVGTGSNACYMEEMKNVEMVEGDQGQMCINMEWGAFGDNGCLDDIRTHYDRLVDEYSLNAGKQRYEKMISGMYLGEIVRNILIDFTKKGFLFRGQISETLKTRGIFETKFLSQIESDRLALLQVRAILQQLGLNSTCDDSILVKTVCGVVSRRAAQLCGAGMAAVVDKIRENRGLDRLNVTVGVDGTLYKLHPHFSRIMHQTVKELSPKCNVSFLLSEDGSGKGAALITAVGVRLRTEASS
Sequence of Paired box protein Pax-8 (Q06710 whole entry): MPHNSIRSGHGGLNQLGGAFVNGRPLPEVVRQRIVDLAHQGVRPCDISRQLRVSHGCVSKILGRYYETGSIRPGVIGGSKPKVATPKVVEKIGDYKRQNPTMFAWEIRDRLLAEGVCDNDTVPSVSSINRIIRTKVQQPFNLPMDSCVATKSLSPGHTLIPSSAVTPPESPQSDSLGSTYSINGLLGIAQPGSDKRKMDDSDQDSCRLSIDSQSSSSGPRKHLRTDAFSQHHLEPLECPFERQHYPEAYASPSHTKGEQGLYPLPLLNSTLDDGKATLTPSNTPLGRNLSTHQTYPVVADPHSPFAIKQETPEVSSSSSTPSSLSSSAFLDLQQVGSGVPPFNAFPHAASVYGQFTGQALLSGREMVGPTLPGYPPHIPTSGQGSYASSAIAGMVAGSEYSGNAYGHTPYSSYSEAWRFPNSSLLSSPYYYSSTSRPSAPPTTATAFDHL
Sequence of Large T antigen (P03070 whole entry): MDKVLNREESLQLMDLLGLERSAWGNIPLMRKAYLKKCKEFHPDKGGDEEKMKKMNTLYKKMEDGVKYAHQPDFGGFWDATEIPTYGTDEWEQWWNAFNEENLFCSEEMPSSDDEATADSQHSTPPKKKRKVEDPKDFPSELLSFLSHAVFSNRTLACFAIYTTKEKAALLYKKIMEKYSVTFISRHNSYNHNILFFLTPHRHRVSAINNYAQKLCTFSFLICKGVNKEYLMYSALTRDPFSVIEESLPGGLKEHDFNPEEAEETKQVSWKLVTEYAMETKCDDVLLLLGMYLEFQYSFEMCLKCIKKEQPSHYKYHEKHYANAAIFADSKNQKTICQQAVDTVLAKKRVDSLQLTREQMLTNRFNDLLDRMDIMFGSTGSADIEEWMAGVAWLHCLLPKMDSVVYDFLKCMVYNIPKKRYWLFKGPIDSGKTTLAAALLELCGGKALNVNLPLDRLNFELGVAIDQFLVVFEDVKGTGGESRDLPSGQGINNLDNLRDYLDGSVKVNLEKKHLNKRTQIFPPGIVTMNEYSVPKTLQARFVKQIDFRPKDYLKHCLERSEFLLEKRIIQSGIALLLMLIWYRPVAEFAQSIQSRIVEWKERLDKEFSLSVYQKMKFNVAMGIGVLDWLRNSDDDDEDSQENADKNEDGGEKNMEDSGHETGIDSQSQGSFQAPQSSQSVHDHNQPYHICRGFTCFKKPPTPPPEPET
Sequence of Glyceraldehyde-3-phosphate dehydrogenase (P04406 whole entry): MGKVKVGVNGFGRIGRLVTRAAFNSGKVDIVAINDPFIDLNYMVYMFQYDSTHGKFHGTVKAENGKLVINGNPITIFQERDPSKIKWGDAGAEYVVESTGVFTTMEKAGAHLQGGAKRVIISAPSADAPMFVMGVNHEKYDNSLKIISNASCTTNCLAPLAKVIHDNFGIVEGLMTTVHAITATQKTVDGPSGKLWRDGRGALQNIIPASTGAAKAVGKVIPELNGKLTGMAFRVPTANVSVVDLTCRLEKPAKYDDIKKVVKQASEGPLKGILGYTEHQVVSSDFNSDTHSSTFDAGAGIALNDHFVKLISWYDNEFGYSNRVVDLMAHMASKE
Sequence of Beta-adrenergic receptor kinase 1 (P25098 whole entry): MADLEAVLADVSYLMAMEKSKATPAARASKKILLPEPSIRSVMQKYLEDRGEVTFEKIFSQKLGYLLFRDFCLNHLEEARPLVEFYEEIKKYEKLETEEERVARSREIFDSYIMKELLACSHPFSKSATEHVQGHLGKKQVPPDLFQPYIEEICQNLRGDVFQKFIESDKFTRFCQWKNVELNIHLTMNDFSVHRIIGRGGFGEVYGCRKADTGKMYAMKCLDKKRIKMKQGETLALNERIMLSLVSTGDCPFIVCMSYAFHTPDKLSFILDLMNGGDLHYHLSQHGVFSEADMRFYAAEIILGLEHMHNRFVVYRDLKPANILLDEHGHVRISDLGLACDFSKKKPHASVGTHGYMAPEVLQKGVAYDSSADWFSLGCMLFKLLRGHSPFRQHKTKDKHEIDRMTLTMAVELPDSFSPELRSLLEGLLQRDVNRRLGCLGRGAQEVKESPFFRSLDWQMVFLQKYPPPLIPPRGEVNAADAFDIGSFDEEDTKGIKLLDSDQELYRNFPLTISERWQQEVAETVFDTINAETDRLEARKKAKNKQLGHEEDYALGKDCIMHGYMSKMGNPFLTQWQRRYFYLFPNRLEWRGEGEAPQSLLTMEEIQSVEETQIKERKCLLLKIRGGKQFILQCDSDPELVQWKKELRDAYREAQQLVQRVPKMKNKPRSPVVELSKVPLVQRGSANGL
Sequence of Mu-type opioid receptor (P35372 whole entry): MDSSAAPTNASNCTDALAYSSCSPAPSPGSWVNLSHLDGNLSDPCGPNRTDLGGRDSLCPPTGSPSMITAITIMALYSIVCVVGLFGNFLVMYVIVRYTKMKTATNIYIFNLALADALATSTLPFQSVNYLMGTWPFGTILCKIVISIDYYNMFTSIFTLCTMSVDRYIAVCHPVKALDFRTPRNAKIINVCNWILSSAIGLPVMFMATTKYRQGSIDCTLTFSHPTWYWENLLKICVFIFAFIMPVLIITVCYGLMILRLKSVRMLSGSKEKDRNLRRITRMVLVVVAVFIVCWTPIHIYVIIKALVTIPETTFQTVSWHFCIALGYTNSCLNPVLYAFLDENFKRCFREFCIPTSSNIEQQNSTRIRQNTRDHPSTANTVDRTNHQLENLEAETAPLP
Sequence of 5-hydroxytryptamine receptor 5A (P47898 whole entry): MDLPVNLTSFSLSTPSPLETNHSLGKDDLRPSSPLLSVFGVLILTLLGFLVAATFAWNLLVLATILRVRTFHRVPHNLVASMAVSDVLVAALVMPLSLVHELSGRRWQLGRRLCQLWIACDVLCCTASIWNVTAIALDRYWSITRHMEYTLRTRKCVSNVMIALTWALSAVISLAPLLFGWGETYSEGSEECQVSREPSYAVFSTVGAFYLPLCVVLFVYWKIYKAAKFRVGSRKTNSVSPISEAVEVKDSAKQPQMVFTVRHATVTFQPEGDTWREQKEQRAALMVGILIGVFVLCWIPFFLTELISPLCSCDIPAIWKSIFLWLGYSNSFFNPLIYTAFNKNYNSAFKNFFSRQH

Take `CCc1ccccc1NC(=O)CCS(=O)(=O)c1ccc(Br)cc1`: the EC50 – broadly, the concentration that produces a half-maximal response – in assay [1] was 3.48 µM (active).

For the compound `CC(C)[C@@H](C(N)=O)n1c(=O)[nH]c(=O)n(-c2ccc(Cl)cc2)c1=O`, the IC50 (as a rule, the midpoint of a concentration-inhibition curve) in assay [2] is > 100 µM (inactive); in assay [3] it was > 100 µM (not active); in assay [4], > 100 µM (not active); in assay [5] it was > 100 µM (inactive).

Turning to `O=C(O)C1OC(Oc2c(-c3ccc(O)c(O)c3)oc3cc(O)cc(O)c3c2=O)C(O)C(O)C1O` (stereo not given), the IC50 in assay [6] is 3.15 µM (active); in assay [7] it was 0.891 µM (active); in [8], > 100 µM (inactive); at Large T antigen it was 9.8 µM (active); on Leucine aminopeptidase, 48.2 µM (active); in assay [9], 3.29 µM (active).

Turning to `CN(C)C(CN=C(S)Nc1cccc(Cl)c1)c1cccnc1` (stereo not given), the EC50 on Mu-type opioid receptor is 7.49 µM (active); in assay [10] it was 0.0133 µM (active); in assay [11], 20.5 µM (inactive); in assay [12], > 92.5 µM (inactive).

As to `CC(N)C(=O)NC1C2C(=C(O)OC1(C)C(Cl)Cl)C(=O)CC(O)C2O` (stereo not given), in the assay on Vero [13], the CC50 (as a rule, the concentration at which the toxic effect on the cells reaches its halfway point) was 3.08 µM (active). Besides, the half-maximal activity concentration (AC50) (commonly the concentration giving half of the maximal activity seen) is 2.03 µM (active) in [14]; 1.85 µM (active) in assay [15]; 0.546 µM (active) at Paired box protein Pax-8; 20.8 µM (active) in the assay with Escherichia coli [16]; 113 µM (active) with Escherichia coli [17]; > 70 µM (inactive) in [18]. In the assay on Vero [19], the IC50 is > 25 µM (active).

For the compound `Cc1ccccc1N1C(=O)c2ccccc2C1Nc1ccc(Br)cc1` (stereo not given), the IC50 at Hexokinase-1 and on Hexokinase HKDC1 was > 80 µM (inactive) throughout.

Source of the values: ChEMBL document CHEMBL1201862, “PubChem BioAssay data set” (2004).
